Experiments:
[1] = test system: relapsed or refractory, rituximab-naive or -sensitive follicular B-cell NHL; assay: Overall survival (OS), Vc-R vs rituximab study, by biomarker; assay type: in vivo, human; parameters: OS Median: unit not given here
Text: (§1) Non-Hodgkin lymphoma (NHL) encompasses several unique malignant lymphoid disease entities that vary in clinical behavior, morphologic appearance, immunologic, and molecular phenotype. […] A randomized, open-label, active-controlled, multicenter, multinational, prospective study to compare the efficacy and safety of the combination of bortezomib and rituximab (Vc-R) to single-agent rituximab in subjects who have relapsed or refractory, rituximab-naive or -sensitive follicular B-cell NHL was performed.
(§2) Subjects were centrally randomized to Treatment Groups A (Vc-R) or B (rituximab) in a 1:1 ratio taking into account the following stratification factors: • Follicular Lymphoma International Prognostic Index (FLIPI) score (low [0 or 1 factor], intermediate [2 factors], high [≧3 factors]); • Prior rituximab therapy (yes, no); • Time since last dose of anti-lymphoma therapy (≦1 year, >1 year); • Region (United States/Canada, European Union, Rest of World).
The following clinical endpoints were included in the analysis within each treatment group and an overall comparison was made with the biomarker-related endpoints: Progression-free survival, defined as the interval between the date of randomization and the date of progressive disease (PD) or death, whichever is first reported in the ITT population; overall survival; overall response rate (complete response [CR]+CR unconfirmed [CRu]+partial response [PR]); overall CR rate (CR+CRu); duration of response; time to next anti-lymphoma therapy; and treatment free interval.
Overall Survival was measured from the date of randomization to the date of the subject's death. If the subject was alive or the vital status was unknown, it was censored at the date that the subject was last known to be alive. Similar to PFS and TTP, the Cox proportional hazard model was used to evaluate the association between biomarker endpoints and OS. Kaplan-Meier survival curves were presented. Analyses were done for the population overall and by treatment group, and each of these analyses was stratified by the covariates used for PFS.

[2] = test system: relapsed or refractory, rituximab-naive or -sensitive follicular B-cell NHL; assay: Overall response rate (CR+CRu+PR), Vc-R vs rituximab study, by biomarker; assay type: in vivo, human; conditions: Biomarker positive (PSMB1 P11A heterozygote and CD68 Low)
Text: as §1
as §2, with “World). […]” for “World).”
Comparison of the response rates between the treatment groups was conducted using the Fishers Exact Test. Duration of response, time to response, and time to clinical relapse were analyzed descriptively, where appropriate, and the biomarker subset was compared (if appropriate, determined as per the initial analysis) to the overall clinical cohort, by treatment group and overall. […]

[3] = 20S % POSITIVE CYTOPLASMIC SIGNAL: 95-100, 2 Prior Lines of Therapy
[4] = 20S % POSITIVE CYTOPLASMIC SIGNAL: 95-100, Ann Arbor Stage IV
[5] = BCL2/P59L: MD, Ann Arbor Stage IV
[6] = BCL2/P59L: MD, High FLIPI Score
[7] = BCL2/P59L: MD, High Tumor Burden
[8] = BCL2/P59L: MD, No Prior Rituximab Therapy
[9] = CD68 OVERALL POSITIVE: 26-50, 2 Prior Lines of Therapy
[10] = CD68 POSITIVE PERIFOLLICULAR: 26-50, 2 Prior Lines of Therapy
[11] = NOTCH/P2513L: MD, >65 years old
[12] = PSMB5/R24C: C/T, Ann Arbor Stage IV
[13] = PSMB5/R24C: C/T, Intermediate FLIPI Score

## rituximab
[1]; 20S % POSITIVE CYTOPLASMIC SIGNAL: 0-20, 2 Prior Lines of Therapy
  OS Evt/N: 1/10
[1]; 20S % POSITIVE CYTOPLASMIC SIGNAL: 0-20, Ann Arbor Stage IV
  OS Evt/N: 1/15
[1]; [3]
  OS Evt/N: 14/35
  OS Median: 1205
[1]; [4]
  OS Evt/N: 25/56
  OS Median: 1205
[1]; 20S INTENSITY CYTOPLASMIC SIGNAL >=3+ + P65 % POSITIVE CYTOPLASMIC SIGNAL <=90%, Selected (biomarker positive)
  Median OS (Vc − R vs R): 717 days
[1]; 20S INTENSITY CYTOPLASMIC SIGNAL: ≦2+, Intermediate FLIPI Score
  OS Evt/N: 2/48
[1]; 20S INTENSITY CYTOPLASMIC SIGNAL: ≧3+, Male
  OS Evt/N: 10/27
[1]; AGEGRP >65 + CD68 POSITIVE FOLLICULAR >50, Selected (biomarker positive)
  Median OS (Vc − R vs R): 971 days
[1]; [5]
  OS Evt/N: 5/5
  OS Median: 174
[1]; BCL2/P59L: MD, Female
  OS Evt/N: 6/8
  OS Median: 536
[1]; [6]
  OS Evt/N: 6/6
  OS Median: 282
[1]; [7]
  OS Evt/N: 5/6
  OS Median: 282
[1]; [8]
  OS Evt/N: 5/5
  OS Median: 174
[1]; BCL2/P59L: MD, Rest of World
  OS Evt/N: 4/5
  OS Median: 174
[1]; BCL2/R106H: MD, Male
  OS Evt/N: 8/10
  OS Median: 318
[1]; [9]
  OS Evt/N: 13/26
  OS Median: 1205
[1]; CD68 OVERALL POSITIVE: 26-50, No High Tumor Burden
  OS Evt/N: 14/54
[1]; CD68 OVERALL POSITIVE: 51-75, Ann Arbor Stage III
  OS Evt/N: 2/21
[1]; CD68 POSITIVE FOLLICULAR: 0-25, No Prior Rituximab Therapy
  OS Evt/N: 11/36
[1]; CD68 POSITIVE FOLLICULAR: 0-25, ≦65 years old
  OS Evt/N: 14/46
[1]; [10]
  OS Evt/N: 7/16
  OS Median: 1205
[1]; CD68 POSITIVE PERIFOLLICULAR: 26-50, Male
  OS Evt/N: 11/30
[1]; CD68 POSITIVE PERIFOLLICULAR: 26-50, No High Tumor Burden
  OS Evt/N: 10/41
[1]; FLIPI High + CD68 POSITIVE FOLLICULAR 0-50, Selected
  Median OS (Vc − R vs R): 1263 days
[1]; FLIPI High + P27 % NUCLEI POSITIVE 0-70, Selected
  Median OS (Vc − R vs R): 1111 days
[1]; FLIPI High + P27 SIGNAL INTENSITY >=2+, Selected
  Median OS (Vc − R vs R): 1263 days
[1]; [11]
  OS Evt/N: 8/13
  OS Median: 795
[1]; NOTCH/P2513L: MD, No High Tumor Burden
  OS Evt/N: 7/26
[1]; NOTCH/Q2460X: MD, Male
  OS Evt/N: 3/3
  OS Median: 595
[1]; NOTCH/X28DEL: MND, 2 Prior Lines of Therapy
  OS Evt/N: 20/56
[1]; NOTCH/X28DEL: MND, Male
  OS Evt/N: 26/75
[1]; P27 % NUCLEI POSITIVE: 0-20, No High Tumor Burden
  OS Evt/N: 3/29
[1]; P27 % NUCLEI POSITIVE: 60-70, Male
  OS Evt/N: 4/12
[1]; P65 % POSITIVE CYTOPLASMIC SIGNAL: >90%, 2 Prior Lines of Therapy
  OS Evt/N: 19/52
[1]; P65 INTENSITY CYTOPLASMIC SIGNAL: ≦1+, Intermediate FLIPI Score
  OS Evt/N: 1/17
[1]; P65 INTENSITY CYTOPLASMIC SIGNAL: ≧2+, 2 Prior Lines of Therapy
  OS Evt/N: 19/55
[1]; [12]
  OS Evt/N: 9/15
  OS Median: 717
[1]; [13]
  OS Evt/N: 4/10
  OS Median: 971
[1]; PSMB9/R60H: A/A, 3 Prior Lines of Therapy
  OS Evt/N: 1/6
[1]; SEX MALE + 20S % NUCLEAR STAINING 30-90, Selected
  Median OS (Vc-R vs R): 1263 days
[1]; Selected: FLIPI High and P65 % POSITIVE CYTOPLASMIC SIGNAL >90%
  Median OS (Vc-R vs R): 1263 days
[2]
  overall response rate: 47.5%

Reference: patent US9322066B2, “Predictors for cancer treatment” (priority 2011, dated 2016)
